These results are taken from patent US20230303623A1, “PEPTIDES AND METHODS OF USE” (REALTA LIFE SCIENCES, INC., priority 2020, published 2023).

One test addresses T1, VEGF (Homo sapiens, UniProt P15692).
T1 construct: Promega (bioassay)
T1 sequence (P15692 27-191 isoform P15692-4): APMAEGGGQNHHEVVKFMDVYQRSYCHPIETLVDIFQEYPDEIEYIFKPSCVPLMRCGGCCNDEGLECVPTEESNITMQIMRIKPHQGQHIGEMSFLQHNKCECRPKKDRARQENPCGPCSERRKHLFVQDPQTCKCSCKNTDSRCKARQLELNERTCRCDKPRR
Briefly: VEGF binding ELISA plate-based assay. The settings on record: peptides 1 mg/ml. The protocol: A fixed amount of PIC1 peptides (1 mg/ml) were added to the plates followed by a rabbit polyclonal antibody that recognizes the peptides and then a secondary anti-rabbit antibody conjugated with HRP. The plate was then developed by addition of TMB as the substrate for the colorimetric assay.
Angiogenesis, or the formation of new blood vessels from the established vasculature, is an essential element in tumor growth and metastasis formation. Inhibiting tumor angiogenesis is considered a major therapeutic strategy in oncology. […] The bioluminescent signal is detected in a luminometer.

A further test deals with TC-1 cells. Put plainly: TC-1 tumor cell model in C57Bl/6 mice. The test is classed as in vivo, mouse. As to the method: Animals were injected with 4×10^5 TC-1 cells subcutaneously into the flank of the animal. Five days later, animals received vehicle treatment with saline (n=6), or drug treatment with RLS-0122 (n=8) IV at 160 mg/kg 1×/day for 15 consecutive days. Animals were also evaluated for behavior and body condition scoring every 2 days for duration of the study. If scoring reached 7 or below, animals were assessed daily. A score of 5 or below was considered endpoint for euthanasia.
To evaluate the efficacy of RLS-0122 in an in vivo system, the inventors utilized the TC-1 tumor cell model in C57Bl/6 mice as previously reported (Roumenina et al., Cancer Immunol Res; 7(7) July 2019). […] When TC-1 cells are introduced into the flank of the mouse, very aggressive tumor formation occurs, resulting in 100% death in approximately 26 days. To test the efficacy of RLS-0122 on survival and quality of life in this model, animals were injected with 4×10^5 TC-1 cells subcutaneously into the flank of the animal. Five days later, animals received vehicle treatment with saline (n=6), or drug treatment with RLS-0122 (n=8) IV at 160 mg/kg 1×/day for 15 consecutive days. […] Animals were also evaluated for behavior and body condition scoring every 2 days for duration of the study. If scoring reached 7 or below, animals were assessed daily. A score of 5 or below was considered endpoint for euthanasia.

Consider “IAdLILEP(Sar)CCQERAA (IALILEPXCCQERAA; D-Leu; sarcosine; MOD_RES (3)..(3) D-amino acid; MOD_RES (8)..(8) Sarcosine) [PA-0122]”, for which, in the test with VEGF, the “binding to VEGF, in words” value is given as “binding with high affinity”. In addition, the “median survival longer than vehicle” value in the test on TC-1 cells (IV 160 mg/kg 1x/day for 15 consecutive days, p=0.0465) came to 8 days. Besides, the “quality of life (behavior and body condition scoring), in words” value in the test with TC-1 cells (IV 160 mg/kg 1x/day for 15 days, significant on days 22-26 (p<0.05)) was “increased quality of life”.
